Experimental data taken from PMC8398766, “Do Small Molecules Activate the TrkB Receptor in the Same Manner as BDNF? Limitations of Published TrkB Low Molecular Agonists and Screening for Novel TrkB Orthosteric Agonists” (Pharmaceuticals, 2021).

Key:
[1] = molecular target: T1, 5-HT4e (Homo sapiens, UniProt Q13639); experiment: BioPrint Profile Panel; type: binding; conditions: Antagonist, Receptor, read-out: % of specific inhibition
T1 construct: purchased Eurofins Discovery (Cerep) BioPrint Profile Panel
From the text: (§1) The BioPrint® Profile Panel service offered by Eurofins Discovery (Poitiers, France) was chosen to perform selectivity analysis.

[2] = molecular target: T2, motilin (Homo sapiens, UniProt O43193); experiment: BioPrint Profile Panel; type: binding; conditions: Agonist, Receptor, read-out: % of specific inhibition
T2 construct: purchased Eurofins Discovery (Cerep) BioPrint Profile Panel
From the text: as §1

[3] = molecular target: T3, UT (Homo sapiens, UniProt Q9UKP6); experiment: BioPrint Profile Panel; type: binding; conditions: Agonist, Receptor, read-out: % of specific inhibition
T3 construct: purchased Eurofins Discovery (Cerep) BioPrint Profile Panel
From the text: as §1

[4] = molecular target: T4, norepinephrine transporter (Homo sapiens, UniProt P23975); experiment: BioPrint Profile Panel; type: binding; conditions: Antagonist, read-out: % of specific inhibition
T4 construct: purchased Eurofins Discovery (Cerep) BioPrint Profile Panel
From the text: as §1

[5] = molecular target: T5, AR (Homo sapiens, UniProt P10275, T878A); experiment: BioPrint Profile Panel; type: binding; conditions: Agonist, Receptor, read-out: % of specific inhibition
T5 construct: purchased Eurofins Discovery (Cerep) BioPrint Profile Panel
From the text: as §1

[6] = molecular target: T6, M4 (Homo sapiens, UniProt P08173); experiment: BioPrint Profile Panel; type: binding; conditions: Antagonist, Receptor, read-out: % of specific inhibition
T6 construct: purchased Eurofins Discovery (Cerep) BioPrint Profile Panel
From the text: as §1

[7] = molecular target: T7, 5-HT transporter (Homo sapiens, UniProt P31645); experiment: BioPrint Profile Panel; type: binding; conditions: Antagonist, read-out: % of specific inhibition
T7 construct: purchased Eurofins Discovery (Cerep) BioPrint Profile Panel
From the text: as §1

[8] = molecular target: T8, GABAA1 (h) (α1, β2, γ2) (Homo sapiens, UniProt P14867+P47870); experiment: BioPrint Profile Panel; type: binding; conditions: Agonist, Receptor, read-out: % of specific inhibition
T8 construct: purchased Eurofins Discovery (Cerep) BioPrint Profile Panel
From the text: as §1

[9] = molecular target: T9, β2 (Homo sapiens, UniProt P07550); experiment: BioPrint Profile Panel; type: binding; conditions: Antagonist, Receptor, read-out: % of specific inhibition
T9 construct: purchased Eurofins Discovery (Cerep) BioPrint Profile Panel
From the text: as §1

[10] = molecular target: T10, MAO-A (Rattus norvegicus, UniProt P21396); experiment: BioPrint Profile Panel; type: binding; conditions: Antagonist, Non-Kinase Enzyme, read-out: % of specific inhibition
T10 construct: purchased Eurofins Discovery (Cerep) BioPrint Profile Panel
From the text: as §1

[11] = molecular target: T11, A2B (Homo sapiens, UniProt P29275); experiment: BioPrint Profile Panel; type: binding; conditions: Antagonist, Receptor
T11 construct: purchased Eurofins Discovery (Cerep) BioPrint Profile Panel
From the text: as §1

[12] = system: Na+ channel; experiment: BioPrint Profile Panel; type: binding; conditions: 10 μM; Antagonist; Ion Channel
From the text: as §1

[13] = molecular target: T12, NOP (ORL1) (Homo sapiens, UniProt P41146); experiment: BioPrint Profile Panel; type: binding; conditions: Agonist, Receptor, read-out: % of specific inhibition
T12 construct: purchased Eurofins Discovery (Cerep) BioPrint Profile Panel
From the text: as §1

[14] = molecular target: T13, CCK1 (Homo sapiens, UniProt P32238); experiment: BioPrint Profile Panel; type: binding; conditions: Agonist, Receptor, read-out: % of specific inhibition
T13 construct: purchased Eurofins Discovery (Cerep) BioPrint Profile Panel
From the text: as §1

[15] = molecular target: T14, CysLT1 (LTD4) (Homo sapiens, UniProt Q9Y271); experiment: BioPrint Profile Panel; type: binding; conditions: Agonist, Receptor, read-out: % of specific inhibition
T14 construct: purchased Eurofins Discovery (Cerep) BioPrint Profile Panel
From the text: as §1

[16] = molecular target: T15, CRF1 (Homo sapiens, UniProt P34998); experiment: BioPrint Profile Panel; type: binding; conditions: Agonist, Receptor, read-out: % of specific inhibition
T15 construct: purchased Eurofins Discovery (Cerep) BioPrint Profile Panel
From the text: as §1

[17] = molecular target: T16, α1B (Homo sapiens, UniProt P35368); experiment: BioPrint Profile Panel; type: binding; conditions: Antagonist, Receptor, read-out: % of specific inhibition
T16 construct: purchased Eurofins Discovery (Cerep) BioPrint Profile Panel
From the text: as §1

[18] = molecular target: T17, ẟ(DOP) (Homo sapiens, UniProt P41143); experiment: BioPrint Profile Panel; type: binding; conditions: Agonist, Receptor, read-out: % of specific inhibition
T17 construct: purchased Eurofins Discovery (Cerep) BioPrint Profile Panel
From the text: as §1

[19] = in vitro; conditions: human, microsomes

T11 sequence (P29275 whole entry): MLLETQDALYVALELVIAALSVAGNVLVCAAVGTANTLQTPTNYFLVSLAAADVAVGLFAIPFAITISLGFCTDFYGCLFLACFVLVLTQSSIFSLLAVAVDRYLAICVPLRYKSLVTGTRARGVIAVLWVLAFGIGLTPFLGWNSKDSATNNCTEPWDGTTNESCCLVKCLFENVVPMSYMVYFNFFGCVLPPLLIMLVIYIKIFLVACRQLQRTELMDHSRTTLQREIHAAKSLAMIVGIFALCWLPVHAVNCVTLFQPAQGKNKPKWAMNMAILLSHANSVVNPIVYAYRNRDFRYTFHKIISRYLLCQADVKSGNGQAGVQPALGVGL
T2 sequence (O43193 whole entry): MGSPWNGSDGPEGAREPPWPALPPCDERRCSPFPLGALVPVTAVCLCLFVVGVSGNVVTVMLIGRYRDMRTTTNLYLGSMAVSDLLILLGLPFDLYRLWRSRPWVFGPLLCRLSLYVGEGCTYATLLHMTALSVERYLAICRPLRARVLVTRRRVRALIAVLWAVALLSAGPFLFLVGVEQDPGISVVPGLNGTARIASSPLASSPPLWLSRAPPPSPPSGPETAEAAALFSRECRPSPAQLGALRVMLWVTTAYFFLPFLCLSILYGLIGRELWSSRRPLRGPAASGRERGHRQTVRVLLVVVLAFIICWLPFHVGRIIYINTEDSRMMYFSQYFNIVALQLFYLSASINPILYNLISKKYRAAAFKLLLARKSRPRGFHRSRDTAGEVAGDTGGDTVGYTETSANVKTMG
T3 sequence (Q9UKP6 whole entry): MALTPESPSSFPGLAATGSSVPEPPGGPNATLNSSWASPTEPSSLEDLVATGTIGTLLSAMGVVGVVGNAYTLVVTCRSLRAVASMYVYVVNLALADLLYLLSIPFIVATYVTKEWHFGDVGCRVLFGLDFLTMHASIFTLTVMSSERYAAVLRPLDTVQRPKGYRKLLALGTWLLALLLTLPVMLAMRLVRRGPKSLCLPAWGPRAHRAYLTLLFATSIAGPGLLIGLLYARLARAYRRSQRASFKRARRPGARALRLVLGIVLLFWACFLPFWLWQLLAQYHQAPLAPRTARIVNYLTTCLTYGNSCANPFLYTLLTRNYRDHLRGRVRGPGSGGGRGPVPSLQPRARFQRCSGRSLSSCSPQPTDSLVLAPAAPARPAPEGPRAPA
T1 sequence (Q13639 1-378 isoform Q13639-5): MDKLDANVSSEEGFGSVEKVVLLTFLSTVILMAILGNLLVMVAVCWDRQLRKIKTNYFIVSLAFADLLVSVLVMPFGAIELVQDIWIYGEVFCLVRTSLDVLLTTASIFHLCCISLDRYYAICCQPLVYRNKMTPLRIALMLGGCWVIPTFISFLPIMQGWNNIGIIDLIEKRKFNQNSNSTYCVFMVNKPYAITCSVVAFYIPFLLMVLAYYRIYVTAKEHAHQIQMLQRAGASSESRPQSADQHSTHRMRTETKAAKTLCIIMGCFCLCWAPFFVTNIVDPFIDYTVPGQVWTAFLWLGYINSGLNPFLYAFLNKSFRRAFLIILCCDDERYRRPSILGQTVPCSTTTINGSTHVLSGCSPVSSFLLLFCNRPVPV
T8 sequence (P14867 28-456): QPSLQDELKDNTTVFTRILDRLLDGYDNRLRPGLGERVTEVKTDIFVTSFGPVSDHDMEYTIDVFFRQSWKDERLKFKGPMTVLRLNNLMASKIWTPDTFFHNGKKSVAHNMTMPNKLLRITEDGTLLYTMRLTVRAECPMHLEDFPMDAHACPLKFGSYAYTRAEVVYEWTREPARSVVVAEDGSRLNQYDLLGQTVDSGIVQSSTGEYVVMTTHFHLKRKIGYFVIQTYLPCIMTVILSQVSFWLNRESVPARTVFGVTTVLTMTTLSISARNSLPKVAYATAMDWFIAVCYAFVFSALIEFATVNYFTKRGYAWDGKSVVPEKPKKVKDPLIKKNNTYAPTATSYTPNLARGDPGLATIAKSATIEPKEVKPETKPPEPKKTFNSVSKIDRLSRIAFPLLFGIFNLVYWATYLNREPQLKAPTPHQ
T8 sequence (P47870 25-512 limits assumed): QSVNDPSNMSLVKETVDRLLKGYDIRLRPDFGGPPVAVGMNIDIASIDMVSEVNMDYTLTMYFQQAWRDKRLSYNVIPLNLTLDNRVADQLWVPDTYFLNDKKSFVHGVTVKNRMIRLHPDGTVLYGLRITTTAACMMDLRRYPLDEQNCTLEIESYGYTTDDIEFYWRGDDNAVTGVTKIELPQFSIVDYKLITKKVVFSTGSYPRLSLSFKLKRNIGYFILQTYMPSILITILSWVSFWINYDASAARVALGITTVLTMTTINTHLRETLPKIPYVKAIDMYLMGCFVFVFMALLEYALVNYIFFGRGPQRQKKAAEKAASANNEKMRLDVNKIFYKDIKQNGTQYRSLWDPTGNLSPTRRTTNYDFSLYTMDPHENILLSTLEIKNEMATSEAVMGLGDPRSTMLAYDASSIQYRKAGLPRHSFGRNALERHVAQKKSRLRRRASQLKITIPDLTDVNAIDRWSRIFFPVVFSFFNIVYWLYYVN
T8 sequence (P18507 40-467 partner limits assumed): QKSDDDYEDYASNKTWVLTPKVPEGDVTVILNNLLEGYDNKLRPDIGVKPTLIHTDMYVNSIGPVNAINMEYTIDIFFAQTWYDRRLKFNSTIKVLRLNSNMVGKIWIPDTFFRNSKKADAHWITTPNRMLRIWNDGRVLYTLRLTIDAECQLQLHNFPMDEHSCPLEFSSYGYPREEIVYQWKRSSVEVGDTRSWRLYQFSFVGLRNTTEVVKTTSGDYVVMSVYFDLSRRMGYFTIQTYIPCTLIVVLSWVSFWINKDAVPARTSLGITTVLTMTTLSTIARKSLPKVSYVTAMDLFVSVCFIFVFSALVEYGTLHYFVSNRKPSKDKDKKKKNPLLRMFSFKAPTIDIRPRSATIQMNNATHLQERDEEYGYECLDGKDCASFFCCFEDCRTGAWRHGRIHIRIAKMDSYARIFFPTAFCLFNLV
T7 sequence (P31645 whole entry): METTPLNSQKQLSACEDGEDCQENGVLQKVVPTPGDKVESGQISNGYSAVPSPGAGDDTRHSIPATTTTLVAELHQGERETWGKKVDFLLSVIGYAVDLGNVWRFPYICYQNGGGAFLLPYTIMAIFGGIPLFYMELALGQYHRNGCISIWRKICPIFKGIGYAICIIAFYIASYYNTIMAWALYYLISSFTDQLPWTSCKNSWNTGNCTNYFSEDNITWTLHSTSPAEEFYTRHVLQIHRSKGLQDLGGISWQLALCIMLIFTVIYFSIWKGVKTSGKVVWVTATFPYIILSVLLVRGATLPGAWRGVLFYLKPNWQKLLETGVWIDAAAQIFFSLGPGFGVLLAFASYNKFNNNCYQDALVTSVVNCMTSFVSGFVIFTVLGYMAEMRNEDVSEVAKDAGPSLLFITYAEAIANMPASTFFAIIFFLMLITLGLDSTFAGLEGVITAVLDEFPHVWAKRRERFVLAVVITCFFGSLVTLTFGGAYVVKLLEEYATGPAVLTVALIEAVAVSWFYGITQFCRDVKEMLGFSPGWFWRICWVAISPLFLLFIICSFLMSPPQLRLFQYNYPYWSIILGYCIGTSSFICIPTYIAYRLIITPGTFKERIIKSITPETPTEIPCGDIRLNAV
T9 sequence (P07550 whole entry): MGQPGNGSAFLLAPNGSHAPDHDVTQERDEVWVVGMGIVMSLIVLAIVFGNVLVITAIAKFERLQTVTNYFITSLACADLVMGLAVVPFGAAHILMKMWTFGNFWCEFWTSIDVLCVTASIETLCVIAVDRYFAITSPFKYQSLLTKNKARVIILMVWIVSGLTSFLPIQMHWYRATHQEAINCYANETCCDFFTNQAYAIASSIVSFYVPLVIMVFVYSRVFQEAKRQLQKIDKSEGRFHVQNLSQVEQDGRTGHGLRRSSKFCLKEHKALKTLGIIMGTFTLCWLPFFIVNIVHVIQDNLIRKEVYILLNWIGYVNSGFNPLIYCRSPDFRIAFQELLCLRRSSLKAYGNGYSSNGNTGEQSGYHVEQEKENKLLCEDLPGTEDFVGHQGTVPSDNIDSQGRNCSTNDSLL
T17 sequence (P41143 whole entry): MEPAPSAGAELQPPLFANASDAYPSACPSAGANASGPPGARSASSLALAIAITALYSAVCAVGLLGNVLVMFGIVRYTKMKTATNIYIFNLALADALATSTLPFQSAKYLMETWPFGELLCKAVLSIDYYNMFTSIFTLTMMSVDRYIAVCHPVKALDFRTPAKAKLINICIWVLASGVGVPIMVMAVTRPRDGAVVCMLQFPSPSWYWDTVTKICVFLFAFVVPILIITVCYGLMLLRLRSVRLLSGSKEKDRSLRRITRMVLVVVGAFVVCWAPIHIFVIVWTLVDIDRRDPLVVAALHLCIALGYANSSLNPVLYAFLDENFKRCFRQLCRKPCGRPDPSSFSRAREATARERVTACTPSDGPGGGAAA
T15 sequence (P34998 24-415): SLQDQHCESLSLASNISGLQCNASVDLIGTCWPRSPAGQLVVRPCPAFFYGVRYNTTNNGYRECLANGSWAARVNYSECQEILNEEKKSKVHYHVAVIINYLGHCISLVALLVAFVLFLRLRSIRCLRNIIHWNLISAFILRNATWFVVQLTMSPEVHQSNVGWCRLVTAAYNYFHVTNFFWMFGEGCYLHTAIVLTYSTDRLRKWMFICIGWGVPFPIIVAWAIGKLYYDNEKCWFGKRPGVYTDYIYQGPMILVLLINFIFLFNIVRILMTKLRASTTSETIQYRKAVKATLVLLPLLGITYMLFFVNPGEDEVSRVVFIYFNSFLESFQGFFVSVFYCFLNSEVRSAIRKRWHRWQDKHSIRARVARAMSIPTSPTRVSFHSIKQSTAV

SMILES: O=c1cc(-c2ccccc2)oc2c(O)c(O)ccc12 [7,8-DHF, 7,8-dihydroxyflavone]
- inhibition at 10 µM [1]: -11%
- inhibition at 10 µM [2]: -2%
- inhibition at 10 µM [3]: -9%
- inhibition at 10 µM [4]: -1%
- inhibition at 10 µM [5]: 0%
- inhibition at 10 µM [6]: -5%
- inhibition at 10 µM [7]: -4%
- inhibition at 10 µM [8]: 12%
- inhibition at 10 µM [9]: -5%
- inhibition at 10 µM [10]: 35%
- % Inhibition of Control Specific Binding ([11]; 10 μM): 78.3%
- inhibition at 10 µM ([11]; read-out: % Inhibition of Control Specific Binding): 78%
- % of specific inhibition [12]: -11%
- inhibition at 10 µM [13]: 11%
- inhibition at 10 µM [14]: 21%
- inhibition at 10 µM [15]: -10%
- inhibition at 10 µM [16]: 5%
- inhibition at 10 µM [17]: -3%
- inhibition at 10 µM [18]: -5%
- microsomal CLint at 1 μM [19]: 52.2 µL/min/mg
